Experiment [1] deals with T1, Arp3 (Arp2/3 complex) (Bos taurus, UniProt P61157). Kind of experiment: fluorescence titration of BtArp2/[…] complex with ε-ATP. The format is binding.
Experiment [2] deals with T1, Arp3 (Arp2/3 complex). Kind of experiment: X-ray co-crystal structure, […] Å, with CK-869 also bound. Format: binding.

As usually defined, the Kd is the concentration at which binding is half-saturated. Read a low Kd as higher affinity. `O=P(O)(O)OP(=O)(O)OP(=O)(O)OC[C@H]1O[C@@H](n2cnc3c2ncn2ccnc32)[C@H](O)[C@@H]1O` [ε-ATP] registered a Kd on Arp3 (Arp2/3 complex) [1] of 3 ± 0.4 µM. As to `Nc1ncnc2c1ncn2[C@@H]1O[C@H](COP(=O)(O)OP(=O)(O)OP(=O)(O)O)[C@@H](O)[C@H]1O` [ATP], the “X-ray co-crystal structure, 2.5 Å, with CK-869 also bound” value at Arp3 (Arp2/3 complex) [2] is “show strong density for both ATP and CK-869 bound to Arp3 subunit”.

The record behind these values is PMC3684959 (Chemistry & biology, 2013).
